Data: patent US5482970A (priority 1993, dated 1996)

What was measured:
prostate = experiment: In vivo antiandrogen activity test, rat: prostate (systemic effect)
[1] = Hydrolysis in blank receptor solution; format: physicochemical; conditions: 40% w/v polyethylene glycol 400/normal saline, 37° C., time course of permeation experiment
Source text: (§1) The freshly excised hairless mouse skin was used in the two-compartment diffusion cell method of Chlen et at., Drug Development and Industrial Pharmacy, 11, […] (1985). The hairless mouse (HRS/J strain) was sacrificed just prior to the experiment by cervical dislocation. A square section of the abdominal skin was surgically removed and mounted between two side-by-side half cells; the exposed area of the skin being approximately 0.64 cm^2. A 1-10% weight/volume (w/v) solution of inocoterone acetate and vehicle was added to the donor compartment and a 40% w/v polyethylene glycol 400/normal saline solution was added to the receptor compartment. Simultaneous skin permeation and biotransformation studies Were conducted in a thermostated diffusion cell apparatus at 37° C. At appropriate intervals samples were withdrawn from the receptor compartment and analyzed for inocoterone acetate and its metabolite, inocoterone, by high pressure liquid chromatography. […] Each experiment was carried out in at least triplicate. This method was used in Examples 3 to 6.

[2] = In vitro skin permeation and metabolism of Carbopol 940 gels, Franz diffusion cell (Example 13); format: in vitro ADME, hairless mouse; conditions: for metabolised at 5 h: mouse, read-out: % Metabolite; for Transdermal Flux Q1, Inocoterone: metabolite
Method: For the evaluation of pharmaceutical compositions of the present invention, the freshly excised hairless mouse skin was used in the diffusion cell method of Franz, Current Problems in Dermatology, 7, 58-68 (1978), in a vertical position, the exposed area of the skin being approximately 1.8 cm^2. The pharmaceutical formulation of known concentration in vehicle was added to the upper compartment of the cell, which was exposed to the stratum corneum side of the skin, and a 40% polyethylene glycol 400/normal saline solution was placed in the lower compartment The penetration and metabolism rates were studied in a thermostated diffusion cell at 37° C. using the analytical method described above. Each experiment was carried out in at least triplicate. This method was used in Examples 7 and 13.
In this example the simultaneous skin permeation and metabolism rates of inocoterone acetate incorporated in the Carbopol 940 gels formulated using the compositions described in Example 7 are shown.

[3] = In vitro skin permeation and metabolism, two-compartment diffusion cell (Example 6); format: in vitro ADME, hairless mouse (HRS/J strain); conditions: for metabolised at 5 h: mouse, of total permeated, read-out: % Metabolite; for Transdermal Flux Q1, Inocoterone: metabolite from applied inocoterone acetate
Source text: as §1
Compositions of 10% w/v of inocoterone acetate in vehicle solutions were prepared by dissolving 1 g of the medicament in 10 ml of a mixture of isopropyl myristate and 95% ethanol in the following volume percent ratios: 100:0, 95:5, 70:30, 60:40, 50:50, 40:60, 30:70, 5:95 and 0:100, respectively. The in vitro skin permeation and metabolism rates were measured using the method described under the in vitro skin permeation test method. The results of these measurements, in terms of the cumulative mount of unchanged medicament and its metabolite permeated in μmoles per square centimeter with time, over 5 hours are given in FIG. 1.
In this example, the results of the use of ethanol as the polar organic solvent in combination with various fatty acid esters for the simultaneous skin permeation and metabolism of inocoterone acetate solution are shown.

rat sebaceous gland = experiment: In vivo antiandrogen activity test, rat: volume density of smooth endoplasmic reticulum of the sebaceous gland
[4] = Carbopol 940 gel: inocoterone acetate 10.0, butyl laurate 6.0, ethanol 50.0% w/w
[5] = Carbopol 940 gel: inocoterone acetate 10.0, ethyl laurate 6.0, ethanol 50.0% w/w
[6] = Carbopol 940 gel: inocoterone acetate 10.0, isopropyl myristate 6.0, ethanol 50.0% w/w
[7] = vehicle 10% Butyl laurate-90% Ethanol
[8] = vehicle 10% Ethyl laurate-90% Ethanol
[9] = vehicle 10% Ethyl oleate-90% Ethanol
[10] = vehicle 10% Isopropyl palmitate-90% Ethanol
[11] = vehicle 10% Propyl laurate-90% Ethanol

CCC1=C2CC[C@]3(C)[C@@H](OC(C)=O)CC[C@H]3[C@@H]2CCC1=O [Inocoterone acetate, 3β-acetoxy-6-ethyl-3αβ-methyl-1,2,3,3a, 4,5,8,9,9a,9b-decahydro-7H-benz(e)inden-7-one]
effect on prostate weight (prostate; intact and castrated testosterone propionate-treated rats, topical, any dose (0.25 to 25 mg/rat/day)): no significant effect on prostate weight at any dose
systemic antiandrogenic effect as evidenced by changes in the prostate (prostate; isopropyl myristate-ethanol mixture, topical 0.5 mg/cm^2/day, 5 days, testosterone propionate-treated castrated rats): resulted in a systemic anfiandrogenic effect
hydrolysis in the blank receptor solution [1]: No significant hydrolysis
Transdermal Flux Q1, Inocoterone Acetate [2, 4]: 45.2 × 10^2 μmoles/cm^2 /5 hours
Transdermal Flux Q1, Total Inocoterone [2, 4]: 111.4 × 10^2 μmoles/cm^2 /5 hours
Transdermal Flux Q1, Inocoterone Acetate [2, 5]: 38.4 × 10^2 μmoles/cm^2 /5 hours
Transdermal Flux Q1, Total Inocoterone [2, 5]: 91.1 × 10^2 μmoles/cm^2 /5 hours
Transdermal Flux Q1, Inocoterone Acetate [2, 6]: 36.2 × 10^2 μmoles/cm^2 /5 hours
Transdermal Flux Q1, Total Inocoterone [2, 6]: 99.0 × 10^2 μmoles/cm^2 /5 hours
metabolised at 5 h [2, 4]: 59.4%
metabolised at 5 h [2, 5]: 57.8%
metabolised at 5 h [2, 6]: 63.4%
transcutaneous penetration ([3]; isopropyl myristate-ethanol mixture, Example 3): increased transcutaneous penetration
metabolised at 5 h [3, 7]: 57.7%
metabolised at 5 h [3, 8]: 67.5%
metabolised at 5 h [3, 9]: 66.4%
metabolised at 5 h [3, 10]: 74.5%
metabolised at 5 h [3, 11]: 70.2%
metabolised at 5 h ([3]; vehicle Ethanol): 100%
Transdermal Flux Q1, Inocoterone Acetate [3, 7]: 39.9 × 10^2 μmoles/cm^2 /5 hrs
Transdermal Flux Q1, Total Inocoterone [3, 7]: 94.4 × 10^2 μmoles/cm^2 /5 hrs
Transdermal Flux Q1, Inocoterone Acetate [3, 8]: 28.1 × 10^2 μmoles/cm^2 /5 hrs
Transdermal Flux Q1, Total Inocoterone [3, 8]: 86.4 × 10^2 μmoles/cm^2 /5 hrs
Transdermal Flux Q1, Inocoterone Acetate [3, 9]: 18.5 × 10^2 μmoles/cm^2 /5 hrs
Transdermal Flux Q1, Total Inocoterone [3, 9]: 55.1 × 10^2 μmoles/cm^2 /5 hrs
Transdermal Flux Q1, Inocoterone Acetate [3, 10]: 9.4 × 10^2 μmoles/cm^2 /5 hrs
Transdermal Flux Q1, Total Inocoterone [3, 10]: 36.9 × 10^2 μmoles/cm^2 /5 hrs
Transdermal Flux Q1, Inocoterone Acetate [3, 11]: 25.8 × 10^2 μmoles/cm^2 /5 hrs
Transdermal Flux Q1, Total Inocoterone [3, 11]: 86.6 × 10^2 μmoles/cm^2 /5 hrs
Transdermal Flux Q1, Inocoterone Acetate ([3]; vehicle Ethanol): 0 × 10^2 μmoles/cm^2 /5 hrs
Transdermal Flux Q1, Total Inocoterone ([3]; vehicle Ethanol): 1.1 × 10^2 μmoles/cm^2 /5 hrs
inhibition of testosterone-induced increase in volume density of smooth endoplasmic reticulum vesicles in intermediate cells of sebaceous gland (rat sebaceous gland; 40% isopropyl myristate-60% ethanol, 0.5 mg/cm^2/day, 5 days, 5 cm^2, testosterone propionate-treated castrated rats): completely inhibited
inhibition of the effects of testosterone on the sebaceous gland (rat sebaceous gland; ethanol vehicle, 0.5 mg/cm^2/day, 5 days, 5 cm^2, testosterone propionate-treated castrated rats): 60%
volume density of smooth endoplasmic reticulum (SER) (rat sebaceous gland; intact rats and castrated rats stimulated with testosterone propionate, topical, 0.25 to 25 mg/rat/day, 1 to 3 weeks): dose related reduction in volume density of SER
efficacy in isopropyl myristate-ethanol mixture (rat sebaceous gland; isopropyl myristate-ethanol mixture compared with ethanol): greater efficacy

CCC1=C2CC[C@]3(C)[C@@H](O)CC[C@H]3[C@@H]2CCC1=O [Inocoterone, 6-ethyl-3αβ-methyl-1,2,3,3a,4,5,8,9,9a,9b-decahydro-7H-benz(e)inden-3-ol-7-one]
Transdermal Flux Q1, Inocoterone [2, 4]: 66.2 × 10^2 μmoles/cm^2 /5 hours
Transdermal Flux Q1, Inocoterone [2, 5]: 52.7 × 10^2 μmoles/cm^2 /5 hours
Transdermal Flux Q1, Inocoterone [2, 6]: 62.8 × 10^2 μmoles/cm^2 /5 hours
Transdermal Flux Q1, Inocoterone [3, 7]: 54.5 × 10^2 μmoles/cm^2 /5 hrs
Transdermal Flux Q1, Inocoterone [3, 8]: 58.3 × 10^2 μmoles/cm^2 /5 hrs
Transdermal Flux Q1, Inocoterone [3, 9]: 36.6 × 10^2 μmoles/cm^2 /5 hrs
Transdermal Flux Q1, Inocoterone [3, 10]: 27.5 × 10^2 μmoles/cm^2 /5 hrs
Transdermal Flux Q1, Inocoterone [3, 11]: 60.8 × 10^2 μmoles/cm^2 /5 hrs
Transdermal Flux Q1, Inocoterone ([3]; vehicle Ethanol): 1.1 × 10^2 μmoles/cm^2 /5 hrs
